According to patent US11912693B2, “Compounds for modulating S1P1 activity and methods of using the same” (TREVENA, INC., priority 2017, dated 2024):

Key:
[1] = target: T1, human sphingosine-1-phosphate receptor 1 (S1P1) (Homo sapiens (Human), UniProt P21453); experiment: Inhibition of cAMP production (HTRF cAMP HiRange), S1P1 CHO-K1 cells; type: cell-based; conditions: for Emax: CHO-K1, efficacy (SPAN) normalized to fingolimod, read-out: hS1P1 cAMP SPAN
Method in brief: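 CHO-K1 cells stably co-expressing human S1P1 (C-terminal Prolink tag) and EA-β-arrestin2 were grown in AssayComplete Media 6 at 37° C. and 5% CO2, plated, and incubated overnight. Agonist-driven inhibition of intracellular cAMP was read by TR-FRET with the HTRF cAMP HiRange kit on a PheraStar reader. Potency is pEC50, and efficacy (SPAN) is normalized to fingolimod.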
Target sequence in this assay (P21453 whole entry, looked up): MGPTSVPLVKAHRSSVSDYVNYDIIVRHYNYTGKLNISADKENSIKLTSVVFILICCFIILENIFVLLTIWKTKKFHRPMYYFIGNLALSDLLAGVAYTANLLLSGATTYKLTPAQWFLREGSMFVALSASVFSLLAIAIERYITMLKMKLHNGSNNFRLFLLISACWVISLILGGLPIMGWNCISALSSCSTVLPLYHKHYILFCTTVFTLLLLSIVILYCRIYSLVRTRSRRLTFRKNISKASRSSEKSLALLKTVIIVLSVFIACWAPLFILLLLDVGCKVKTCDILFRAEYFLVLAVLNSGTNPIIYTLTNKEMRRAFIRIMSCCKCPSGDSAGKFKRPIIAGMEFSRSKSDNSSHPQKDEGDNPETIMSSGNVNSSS

[2] = target: T1, human sphingosine-1-phosphate receptor 1 (S1P1); experiment: β-Arrestin2 recruitment assay (PathHunter), S1P1 CHO-K1 cells; type: cell-based; conditions: for Emax: CHO-K1, efficacy (SPAN) normalized to fingolimod, read-out: hS1P1 B-arrestin2 SPAN
Method in brief: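 Enzyme-fragment complementation read-out: agonist-driven β-arrestin2 binding to ProLink-tagged human S1P1 in stable CHO-K1 cells restores β-galactosidase, measured 1 h at room temperature after a 60 min 37° C. compound incubation. Potency as pEC50, efficacy relative to fingolimod (SPAN).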
Target sequence in this assay (P21453 whole entry, looked up): as above
Target sequence in this assay (P32121 whole entry partner, looked up): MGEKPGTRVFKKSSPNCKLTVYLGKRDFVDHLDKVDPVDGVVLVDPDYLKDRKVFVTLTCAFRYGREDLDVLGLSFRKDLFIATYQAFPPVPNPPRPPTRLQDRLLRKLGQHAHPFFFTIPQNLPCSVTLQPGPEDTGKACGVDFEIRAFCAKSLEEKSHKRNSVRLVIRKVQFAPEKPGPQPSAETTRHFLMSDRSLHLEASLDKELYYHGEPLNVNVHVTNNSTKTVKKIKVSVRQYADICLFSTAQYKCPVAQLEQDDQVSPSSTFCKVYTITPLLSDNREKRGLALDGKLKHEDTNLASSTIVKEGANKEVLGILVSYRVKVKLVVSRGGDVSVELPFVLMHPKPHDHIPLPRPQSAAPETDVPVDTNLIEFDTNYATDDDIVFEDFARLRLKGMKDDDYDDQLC

[3] = inhibition of cAMP production, S1P1 CHO-K1 cells
[4] = β-arrestin2 recruitment, S1P1 CHO-K1 cells

Emax [1] | hS1P1 cAMP pEC50 [1, 3] | Emax [2] | hS1P1 B-arrestin2 pEC50 [2, 4] | EC50 ([1]; inhibition of cAMP production, S1P1 CHO-K1 cells, read-out: hS1P1 cAMP pEC50 (converted)) | EC50 ([2]; β-arrestin2 recruitment, S1P1 CHO-K1 cells, read-out: hS1P1 B-arrestin2 pEC50 (converted)) | SMILES
> 75% | >6.5 | > 75% | >5 | – | – | Cc1cc(-c2nc(-c3ccc4c(c3)nnn4C(C)C)no2)cc(C)n1 [Compound 156, 5-(2,6-dimethylpyridin-4-yl)-3-(1-isopropyl-1H-benzo[d][1,2,3]triazol-5-yl)-1,2,4-oxadiazole]
> 75% | – | > 75% | – | < 0.316 µM | < 10 µM | CC(C)n1nnc2cc(-c3nc(-c4cccnc4Cl)no3)ccc21 [Compound 499, 5-[3-(2-chloropyridin-3-yl)-1,2,4-oxadiazol-5-yl]-1-(propan-2-yl)-1H-1,2,3-benzotriazole]
< 75% | <6.5 | < 75% | <5 | – | – | Cc1ccc(-c2nc(-c3ccc4c(c3)nnn4C(C)C)no2)s1 [Compound 74, 5-[5-(5-methylthiophen-2-yl)-1,2,4-oxadiazol-3-yl]-1-(propan-2-yl)-1H-1,2,3-benzotriazole]
– | <6.5 | – | <5 | – | – | CC(C)c1cc(-c2nc(-c3ccc4c(c3)nnn4C(C)C)no2)ccn1 [Compound 167, 3-(1-isopropyl-1H-benzo[d][1,2,3]triazol-5-yl)-5-(2-isopropylpyridin-4-yl)-1,2,4-oxadiazole]
– | <6.5 | – | <5 | – | – | CC(C)n1nnc2cc(-c3nc(-c4ccc(Oc5ccccc5)cc4)no3)ccc21 [Compound 15, 5-[3-(4-phenoxyphenyl)-1,2,4-oxadiazol-5-yl]-1-(propan-2-yl)-1H-1,2,3-benzotriazole]

Further lines, the compound ahead of its results:

SMILES | Emax [1] | hS1P1 cAMP pEC50 [1, 3] | Emax [2] | hS1P1 B-arrestin2 pEC50 [2, 4] | EC50 ([1]; inhibition of cAMP production, S1P1 CHO-K1 cells, read-out: hS1P1 cAMP pEC50 (converted)) | EC50 ([2]; β-arrestin2 recruitment, S1P1 CHO-K1 cells, read-out: hS1P1 B-arrestin2 pEC50 (converted))
CC(C)n1nnc2cc(-c3nc(-c4ccccc4)co3)ccc21 [Compound 294, 5-(4-phenyl-1,3-oxazol-2-yl)-1-(propan-2-yl)-1H-1,2,3-benzotriazole] | < 75% | <6.5 | > 75% | <5 | – | –
COc1ccccc1-c1nnc(-c2ccc3[nH]c(=O)oc3c2)o1 [Compound 349, 6-[5-(2-methoxyphenyl)-1,3,4-oxadiazol-2-yl]-2,3-dihydro-1,3-benzoxazol-2-one] | < 75% | >6.5 | < 75% | <5 | – | –
COc1ccccc1-c1nnc(-c2ccc3c(c2)oc(=O)n3C)o1 [Compound 350, 6-[5-(2-methoxyphenyl)-1,3,4-oxadiazol-2-yl]-3-methyl-2,3-dihydro-1,3-benzoxazol-2-one] | < 75% | <6.5 | < 75% | <5 | – | –
CCC1(CC)CC(=O)c2cc(-c3nc(-c4ccc(C)s4)no3)ccc2O1 [Compound 34, 2,2-diethyl-6-(3-(5-methylthiophen-2-yl)-1,2,4-oxadiazol-5-yl)chroman-4-one] | – | <6.5 | – | >5 | – | –
CC(C)Oc1ccc(-c2nc(-c3ccc4c(c3)nnn4C3CCCC3)no2)cc1 [Compound 121, 3-(1-cyclopentyl-1H-benzo[d][1,2,3]triazol-5-yl)-5-(4-isopropoxyphenyl)-1,2,4-oxadiazole] | < 75% | <6.5 | < 75% | <5 | – | –
CC(C)n1ccc2cc(-c3noc(-c4ccccn4)n3)ccc21 [Compound 397, 3-(1-isopropyl-1H-indol-5-yl)-5-(pyridin-2-yl)-1,2,4-oxadiazole] | – | <6.5 | – | <5 | – | –
Brc1ccccc1-c1noc(-c2ccc3c(c2)nnn3C2CCOCC2)n1 [Compound 233, 5-[3-(2-bromophenyl)-1,2,4-oxadiazol-5-yl]-1-(oxan-4-yl)-1H-1,2,3-benzotriazole] | < 75% | <6.5 | < 75% | <5 | – | –
COc1ccc(-c2noc(-c3ccc4c(c3)nnn4C3CCCCC3)n2)cc1C(F)(F)F [Compound 284, 1-cyclohexyl-5-{3-[4-methoxy-3-(trifluoromethyl)phenyl]-1,2,4-oxadiazol-5-yl}-1H-1,2,3-benzotriazole] | < 75% | <6.5 | < 75% | <5 | – | –
